Reference: patent US11827636B2, “Degradation of cyclin-dependent kinase 8 (CDK8) by conjugation of CDK8 inhibitors with E3 ligase ligand and methods of use” (DANA-FARBER CANCER INSTITUTE, INC., priority 2016, dated 2023)

Columns and labels:
Assay type in all cases: cell-based
CDK8 [1] = target: T1, CDK8 (Mus musculus, UniProt Q8R3L8); assay: Enzyme degradation assay (western blot), CDK8 level in MC38 colorectal cancer cells; settings: 6 hours
T1 construct: levels of CDK8, pS727-STAT1, and actin in MC38 colorectal cancer cells; endogenous in cells; host or cells: MC38 colorectal cancer cells
T1 sequence (Q8R3L8 1-464): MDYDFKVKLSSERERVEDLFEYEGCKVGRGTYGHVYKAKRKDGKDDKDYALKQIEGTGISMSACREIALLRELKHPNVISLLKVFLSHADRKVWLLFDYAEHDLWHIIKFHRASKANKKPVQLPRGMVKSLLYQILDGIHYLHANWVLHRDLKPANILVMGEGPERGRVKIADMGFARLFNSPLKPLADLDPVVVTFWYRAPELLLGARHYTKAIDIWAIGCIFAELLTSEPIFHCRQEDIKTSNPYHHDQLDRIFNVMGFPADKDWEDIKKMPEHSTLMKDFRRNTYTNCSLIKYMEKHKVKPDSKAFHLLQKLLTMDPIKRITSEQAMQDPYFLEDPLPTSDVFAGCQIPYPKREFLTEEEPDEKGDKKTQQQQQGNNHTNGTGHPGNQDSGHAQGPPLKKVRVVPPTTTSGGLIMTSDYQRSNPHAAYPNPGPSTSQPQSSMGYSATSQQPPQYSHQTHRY
T1 sequence (Q62447 1-283 partner): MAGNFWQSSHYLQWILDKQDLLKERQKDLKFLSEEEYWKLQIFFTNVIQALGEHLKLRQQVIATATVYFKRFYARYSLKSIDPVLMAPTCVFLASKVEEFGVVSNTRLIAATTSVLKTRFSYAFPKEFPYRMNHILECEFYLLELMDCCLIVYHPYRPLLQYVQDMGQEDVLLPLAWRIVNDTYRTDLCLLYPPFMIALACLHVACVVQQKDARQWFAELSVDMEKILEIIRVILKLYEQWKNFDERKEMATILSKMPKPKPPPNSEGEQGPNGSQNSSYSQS
T1 sequence (Q8C7D2 1-445 partner): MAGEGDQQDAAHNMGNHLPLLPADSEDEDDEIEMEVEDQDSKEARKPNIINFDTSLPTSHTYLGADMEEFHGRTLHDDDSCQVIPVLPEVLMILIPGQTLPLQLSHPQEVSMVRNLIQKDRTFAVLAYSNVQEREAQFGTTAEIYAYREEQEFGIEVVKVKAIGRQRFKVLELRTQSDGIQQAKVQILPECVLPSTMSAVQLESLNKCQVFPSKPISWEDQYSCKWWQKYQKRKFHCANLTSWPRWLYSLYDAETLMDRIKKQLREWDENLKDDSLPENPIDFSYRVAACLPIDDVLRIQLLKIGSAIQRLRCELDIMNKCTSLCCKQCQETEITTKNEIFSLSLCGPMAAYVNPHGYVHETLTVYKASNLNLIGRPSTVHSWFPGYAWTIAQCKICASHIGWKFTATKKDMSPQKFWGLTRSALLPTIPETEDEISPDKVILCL
Experimental: (§1) Cells are treated with a control or a bifunctional compound of the application alone or in combination with an agent that blocks proteasomal degradation at a single concentration or various concentrations. After treatment, cells are washed and harvested by resuspending in buffer and lysed on ice 30 minutes. Lysates are then cleared by centrifugation. Samples are boiled and equal amount of protein is loaded onto polyacrylamide gel. The gel is transferred to nitrocellulose and blotted for CDK8, mTOR, STAT1 serine 727 phosphorylation or actin.
Cells are treated with a control or a bifunctional compound of the application at various concentrations for a desired period of time. Cells are then lysed in a suitable buffer. Protein concentration may be measured with any appropriate assay known in the art. […] The signals from the label are detected.
The indicated cells were treated with vehicle control or the bifunctional compounds of the application, at a single or various concentrations, alone or in combination with bortezomib, an agent that blocks proteasomal degradation. […] Protein concentrations were determined by BCA assay, and equal amounts of protein were loaded onto gels to perform Western blots. […] Antibody binding was detected using near-infrared-dye-conjugated secondary antibodies. […]

pS727-STAT1 [2] = assay: Western blot, pS727-STAT1 level in wild-type (WT) Molt4 cells; settings: 1 μM compound, 6 hours
Experimental: as §1
(§2) The indicated cells were treated with vehicle control or the bifunctional compounds of the application, at a single or various concentrations, alone or in combination with bortezomib, an agent that blocks proteasomal degradation. After treatment, cells were washed with PBS and lysed in lysis buffer and then cleared by centrifugation. Protein concentrations were determined by BCA assay, and equal amounts of protein were loaded onto gels to perform Western blots. Gels were transferred to nitrocellulose, blocked with 5% milk in TBS-T, and probed for CDK8, mTOR, S727-STAT1, and Actin. Antibody binding was detected using near-infrared-dye-conjugated secondary antibodies.

pS727-STAT1 [3] = assay: Western blot, pS727-STAT1 level in MC38 colorectal cancer cells; settings: 6 hours
Experimental: as §1, §2

CDK8 [4] = target: T2, CDK8 (Homo sapiens, UniProt P49336); assay: Enzyme degradation assay (western blot), CDK8 level in wild-type (WT) Molt4 cells; settings: 1 μM compound, 6 hours
T2 construct: endogenous in cells; host or cells: wild-type Molt4 cells
Experimental: as §1, §2

[5] = 1 μM compound in combination with 10 nM bortezomib

T2 sequence (P49336 whole entry): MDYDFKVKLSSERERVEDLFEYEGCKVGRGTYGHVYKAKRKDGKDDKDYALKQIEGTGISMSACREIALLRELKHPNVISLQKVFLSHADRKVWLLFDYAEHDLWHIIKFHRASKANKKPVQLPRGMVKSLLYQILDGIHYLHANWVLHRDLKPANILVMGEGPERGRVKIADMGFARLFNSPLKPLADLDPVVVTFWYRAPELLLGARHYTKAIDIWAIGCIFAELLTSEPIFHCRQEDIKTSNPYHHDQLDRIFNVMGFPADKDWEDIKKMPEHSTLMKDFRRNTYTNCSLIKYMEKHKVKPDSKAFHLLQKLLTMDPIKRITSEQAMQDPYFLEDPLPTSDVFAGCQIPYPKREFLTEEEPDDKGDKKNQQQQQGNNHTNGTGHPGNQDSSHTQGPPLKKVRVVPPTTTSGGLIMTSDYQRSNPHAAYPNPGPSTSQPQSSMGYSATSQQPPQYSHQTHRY
T2 sequence (P24863 whole entry partner): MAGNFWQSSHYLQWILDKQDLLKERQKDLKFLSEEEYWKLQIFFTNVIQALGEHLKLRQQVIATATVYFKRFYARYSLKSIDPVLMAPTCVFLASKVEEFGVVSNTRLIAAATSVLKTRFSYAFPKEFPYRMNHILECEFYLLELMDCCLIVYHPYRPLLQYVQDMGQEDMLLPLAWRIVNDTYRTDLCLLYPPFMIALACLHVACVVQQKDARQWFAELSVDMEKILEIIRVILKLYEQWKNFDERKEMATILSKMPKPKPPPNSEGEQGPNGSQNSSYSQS
T2 sequence (Q96SW2 whole entry partner): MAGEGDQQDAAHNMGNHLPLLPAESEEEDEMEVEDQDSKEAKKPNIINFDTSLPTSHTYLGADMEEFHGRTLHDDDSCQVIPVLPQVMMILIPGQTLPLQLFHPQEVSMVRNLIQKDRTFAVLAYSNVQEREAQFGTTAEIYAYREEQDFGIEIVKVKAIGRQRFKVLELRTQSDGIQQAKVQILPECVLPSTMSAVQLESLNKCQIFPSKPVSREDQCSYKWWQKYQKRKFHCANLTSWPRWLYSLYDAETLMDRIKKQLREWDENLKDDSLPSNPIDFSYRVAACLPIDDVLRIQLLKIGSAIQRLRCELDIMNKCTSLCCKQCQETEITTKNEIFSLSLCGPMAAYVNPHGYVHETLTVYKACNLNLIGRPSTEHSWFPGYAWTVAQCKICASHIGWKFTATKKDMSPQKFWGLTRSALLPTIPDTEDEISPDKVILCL

| SMILES | degradation of CDK8 when the proteasome is inhibited with bortezomib (CDK8 [1]; [5]) | degradation of CDK8 (western blot level of CDK8) (CDK8 [1]; 1 μM compound, alone) | phosphorylation of Ser727-STAT1 (pS727-STAT1 [2]) | reduction in the level of pSer727-STAT1 when the proteasome is inhibited with bortezomib (pS727-STAT1 [3]; [5]) | level of phosphorylation of the CDK8 substrate Ser727-STAT1 (pS727-STAT1 [3]; 1 μM compound, alone) | degradation of CDK8 (western blot level of CDK8) (CDK8 [4]) |
| --- | --- | --- | --- | --- | --- | --- |
| O=C1CCC(N2C(=O)c3cccc(NCCOCCOCCOCCOCCOCCC(=O)N4CCN(c5ccc(-n6c(=O)ccc7cnc8ccc(-c9ccc%10ccncc%10c9)cc8c76)cc5C(F)(F)F)CC4)c3C2=O)C(=O)N1 (centres unmarked) [Compound I-3, 2-(2,6-dioxopiperidin-3-yl)-4-((18-(4-(4-(9-(isoquinolin-7-yl)-2-oxobenzo[h][1,6]naphthyridin-1(2H)-yl)-2-(trifluoromethyl)phenyl)piperazin-1-yl)-18-oxo-3,6,9,12,15-pentaoxaoctadecyl)amino)isoindoline-1,3-dione] | rescued | efficiently degraded CDK8 | blocked phosphorylation | rescued | lowered the level of phosphorylation | efficiently degraded CDK8 |
| O=C1CCC(N2C(=O)c3cccc(NCCCCn4cc(-c5ccc(-c6cncc(Cl)c6N6CCC7(CCNC7=O)CC6)cc5)cn4)c3C2=O)C(=O)N1 (centres unmarked) [Compound I-6, 4-(4-(4-(4-(5-chloro-4-(1-oxo-2,8-diazaspiro[4.5]decan-8-yl)pyridin-3-yl)phenyl)-1H-pyrazol-1-yl)butylamino)-2-(2,6-dioxopiperidin-3-yl)isoindoline-1,3-dione] | – | – | blocked phosphorylation | – | – | efficiently degraded CDK8 |
